Reference: patent publication US20090148883A1, “BIOMARKER FOR ASSESSING RESPONSE TO FMS TREATMENT” (priority 2007, published 2009)
Values joined by “and” are separate entries in the source; they are usually repeats but may differ in a detail not shown here. Identical values can stand only once.

Experiments:
[1] = system: CSF-1; assay: Plasma CSF-1 after single ascending oral doses in healthy male subjects (Human CSF-1 ELISA); type: in vivo; conditions: individual subjects (placebo subjects not identified); for Plasma CSF-1 Fold Change from Baseline: 1200 mg single oral dose cohort
Protocol: The safety and tolerability of single ascending, oral doses of COMPOUND 1 in healthy male subjects was assessed. Blood samples were collected on Day 1 predose and at 2, 4, 8, 12, 24 and 48 hours postdose and assessed for biomarker. Analysis of the biomarker was performed for all subjects receiving at least one dose of COMPOUND 1 or placebo as set forth in Table 5.
4 mL venous blood samples were collected on Day 1, within 60 minutes (predose), 2, 4, 8, 12, 24, and 48 hours postdose and 3 mL on Day 1 predose, 2 and 8 hours postdose for assessment of the effect of COMPOUND 1 on plasma CSF-1.
Plasma CSF-1 levels were measured using R&D Systems Human CSF-1 ELISA. Samples were diluted 1:5 for assay. Assay range for standards is 31-2000 pg/mL. Maximum measurable plasma concentration is ˜10000 pg/ml. Current maximum measured concentration ˜4000 pg/ml.

[2] = system: bone marrow derived macrophages (BMDM); assay: Clearance of CSF-1 by bone marrow derived macrophages in vitro (CSF-1 ELISA of conditioned media); type: cell-based, mouse; conditions: for Reduction of rate of CSF-1 consumption: slopes through 4.9 hours
Protocol: COMPOUND 1 was provided as a 10 mM stock in dimethyl sulfoxide (DMSO).Recombinant mouse CSF-1 (416 mL 050) and mouse CSF-1 ELISA (MNC00) were both purchased from R&D Systems Inc., (Minneapolis, Minn.). Mouse bone marrow-derived macrophage (BMDM) were prepared and were plated into 12 well plates in the presence of culture media (αMEM containing 10% FCS and glutamine PenStrep) and 25 ng/mL CSF-1 for three days until approximately 60% confluency was achieved. The cultures were then washed twice with media without CSF-1, and cultured for 2 hrs in the absence of CSF-1 to allow the macrophages to consume CSF-1 that may have been residual to the wells. The cultures were next adjusted to contain CSF-1 and COMPOUND 1 as indicated in Table 1 (Experimental Design) and incubation was continued at 37° C. and 5% CO2. […] At timed-intervals (0, 1.1, 2.3, 4.9, 10.3, 19.9, 29, and 44 hours) 50 μl of conditioned media were removed from each well and saved under refrigeration. After harvest of the last time point, all samples were subjected to CSF-1 ELISA. CSF-1 concentrations (pg/mL) vs time were plotted for each well using linear linear and log linear formats. Consumption was log linear over the first 4.9-hours. Excel was used to calculate a best fit linear equation describing CSF-1 consumption for each well through 4.9 hours and slopes were used to determine the relative rates of consumption.

[3] = system: ED-1 positive macrophages in the uterus; assay: Macrophage content of the uterus (ED-1 immunohistochemistry) in rats, Example 2; type: in vivo, rat; conditions: highest dose tested (COMPOUND 2 15 mg/kg, COMPOUND 1 40 mg/kg po bid), Day 5; highly variable
Protocol: (§1) Groups of female Sprague Dawley rats (n=5) were orally administered 5 or 15 mg/kg of COMPOUND 2 or 40 mg/kg COMPOUND 1 twice per day for 5 consecutive days to characterize compound tolerability. Additional groups of rats, treated with vehicle or 40 mg/kg COMPOUND 1, were terminated one hour after the a.m. dose on Days 1 and 3 for interim analysis of various parameters. Post-mortem analysis of all treated animals included standard necropsy with liver histology evaluation as well as standard hematology and serology. None of the animals were found dead or were euthanized (moribund) prior to scheduled termination. None of the treatments affected body weight or the organ:body weight ratio of selected organs (i.e., liver, thymus, spleen & uterus). […] Both compounds, at the highest dose tested, decreased the number of macrophages in the uterus (up to ˜60% for COMPOUND 2) on Day 5 however, this parameter was highly variable.
(§2) On Days 1 & 3, one hour after a.m. dose, five rats from Groups 1 and 4 were euthanized using CO2 asphyxiation and exsanguinated via cardiac puncture. Blood samples (˜500 μL) were transferred to separate ethylenediaminetetraacetic acid (EDTA) microtainers and a complete blood count (CBC) was conducted using the Advia 120 Hematology System (Bayer Diagnostics, Tarrytown, N.Y.). Additional blood samples were transferred to separate microtainers (with or without anticoagulant) and processed for biomarker (i.e., MCSF-1) and serologic (i.e., AST/ALT) analysis. The liver and thymus were weighed and discarded. The spleens were weighed and zap-frozen and the uteri (without ovaries attached) were weighed and fixed in 10% buffered formalin. The macrophage content of the uterus was determined immunohistochemically using a macrophage-specific (ED-1) antibody.
On Day 5, rats were euthanized using carbon dioxide and exsanguinated via cardiac puncture. […]
Differences between treated and control groups were analyzed statistically by ANOVA with a Dunnett's Multiple Comparison post-test. […]

[4] = Tolerability in rats, Example 2; type: in vivo; conditions: 5 or 15 mg/kg COMPOUND 2 or 40 mg/kg COMPOUND 1, po bid, 5 consecutive days
Protocol: as §1, with “variable. […]” for “variable.”
On Days 1 & 3, one hour after a.m. dose, five rats from Groups 1 and 4 were euthanized using CO2 asphyxiation and exsanguinated via cardiac puncture. […] The macrophage content of the uterus was determined immunohistochemically using a macrophage-specific (ED-1) antibody. […]

[5] = system: BMDM; assay: CSF-1-induced BMDM proliferation; type: cell-based; conditions: Mus musculus, data not shown, read-out: IC50 for inhibition of CSF-1-induced BMDM proliferation
[6] = system: CSF-1; assay: Plasma CSF-1 biomarker in rats, Example 2 (po bid 5 days); type: in vivo, rat; conditions: 40 mg/kg po bid, control ~75 pg/ml
Protocol: as §1
On Day 0, the rats were ear tagged, randomized into the treatment groups (Groups 1 & 4: n=15, Groups 2 & 3: n=5), weighed and treated (po, bid) with either vehicle (20% HPbCD) or the test articles as delineated in Table 2 (Allocation of Treatment Groups).
as §2
On Day 5, rats were euthanized using carbon dioxide and exsanguinated via cardiac puncture. Blood samples (˜500 μL) were collected and processed as described above for CBC, biomarker analysis and serology. The liver, spleen, thymus and uterus (without ovaries attached) were isolated, weighed and fixed in buffered formalin. The right knee with femur attached was isolated, trimmed and fixed in formalin. The left femur was isolated for determination of bone marrow cell counts. Liver histopathology was also conducted.
Differences between treated and control groups were analyzed statistically by ANOVA with a Dunnett's Multiple Comparison post-test. (p value; *:<0.05, **:<0.01).

With `CN(C)CC(=O)N1CCC(c2ccc(NC(=O)c3nc(C#N)c[nH]3)c(C3=CCCCC3)c2)CC1.Cl` [COMPOUND 1] as the molecule, how does the “Plasma CSF-1 Fold Change from Time 0” value ([1]; 150 mg single oral dose cohort, 2 hours postdose) read?
The value was 1.8 fold (2×) and 2.5 fold and 2.0 fold and 0.8 fold (2×) and 0.9 fold.

And the “Plasma CSF-1 Fold Change from Time 0” value ([1]; 150 mg single oral dose cohort, 4 hours postdose)?
Its value is 2.2 fold and 1.8 fold and 1.9 fold (2×) and 0.8 fold (2×) and 0.9 fold.

What about the “Plasma CSF-1 Fold Change from Time 0” value ([1]; 150 mg single oral dose cohort, 8 hours postdose) of the same molecule?
The value was 1.4 fold and 2.5 fold and 1.6 fold and 1.0 fold and 0.8 fold and 1.7 fold and 0.7 fold.

And the “Plasma CSF-1 Fold Change from Time 0” value ([1]; 150 mg single oral dose cohort, 12 hours postdose)?
Its value is 1.5 fold and 1.6 fold and 2.4 fold and 0.9 fold and 0.8 fold and 1.7 fold and 0.7 fold.

And the “Plasma CSF-1 Fold Change from Time 0” value ([1]; 150 mg single oral dose cohort, 24 hours postdose)?
The value was 1.4 fold and 1.3 fold and 1.2 fold and 2.0 fold and 0.9 fold and 1.8 fold and 0.7 fold.

What about the “Plasma CSF-1 Fold Change from Time 0” value ([1]; 150 mg single oral dose cohort, 48 hours postdose) of the same molecule?
Its value is 1.2 fold and 1.1 fold and 1.0 fold and 0.8 fold and 1.8 fold and 1.4 fold and 0.6 fold.

And the “Plasma CSF-1 Fold Change from Time 0” value ([1]; 300 mg single oral dose cohort, 2 hours postdose)?
Its value is 4.6 fold and 0.8 fold and 3.3 fold and 2.7 fold and 0.9 fold and 5.2 fold and 3.4 fold and 1.8 fold.

And the “Plasma CSF-1 Fold Change from Time 0” value ([1]; 300 mg single oral dose cohort, 4 hours postdose)?
Its value is 4.4 fold (2×) and 1.4 fold and 3.0 fold and 0.7 fold and 6.8 fold and 4.5 fold and 2.6 fold.

What about the “Plasma CSF-1 Fold Change from Time 0” value ([1]; 300 mg single oral dose cohort, 8 hours postdose) of the same molecule?
The value was 3.8 fold and 0.9 fold and 3.4 fold and 3.0 fold and 1.5 fold and 6.4 fold and 4.1 fold and 1.9 fold.

What about the “Plasma CSF-1 Fold Change from Time 0” value ([1]; 300 mg single oral dose cohort, 12 hours postdose) of the same molecule?
Its value is 2.6 fold and 0.8 fold and 2.2 fold and 3.8 fold and 0.9 fold and 4.5 fold and 3.0 fold and 1.4 fold.

And the “Plasma CSF-1 Fold Change from Time 0” value ([1]; 300 mg single oral dose cohort, 24 hours postdose)?
Its value is 1.9 fold and 0.9 fold and 1.5 fold (3×) and 1.7 fold and 2.1 fold and 1.1 fold.

And the “Plasma CSF-1 Fold Change from Time 0” value ([1]; 300 mg single oral dose cohort, 48 hours postdose)?
Its value is 2.3 fold and 1.0 fold and 1.4 fold (2×) and 0.9 fold and 2.2 fold and 1.2 fold and 0.8 fold.

What about the “Plasma CSF-1 Fold Change from Time 0” value ([1]; 600 mg single oral dose cohort, 2 hours postdose) of the same molecule?
Its value is 7.5 fold and 0.7 fold and 2.9 fold and 5.0 fold and 0.9 fold and 6.0 fold and 4.8 fold and 2.3 fold.

What about the “Plasma CSF-1 Fold Change from Time 0” value ([1]; 600 mg single oral dose cohort, 4 hours postdose) of the same molecule?
The value was 8.7 fold and 1.2 fold.

And the “Plasma CSF-1 Fold Change from Baseline” value ([1]; 2 hours postdose)?
Its value is 5.4 fold and 4.9 fold and 0.8 fold and 4.4 fold (2×) and 6.8 fold and 0.5 fold and 3.5 fold.

And the “Plasma CSF-1 Fold Change from Baseline” value ([1]; 4 hours postdose)?
Its value is 8.9 fold and 8.4 fold and 1.0 fold and 7.6 fold and 9.5 fold and 5.9 fold and 0.4 fold and 5.3 fold.

What about the “Plasma CSF-1 Fold Change from Baseline” value ([1]; 8 hours postdose) of the same molecule?
The value was 9.9 fold and 9.8 fold and 1.0 fold and 11.3 fold and 13.4 fold and 6.9 fold and 0.4 fold and 7.8 fold.

And the “Plasma CSF-1 Fold Change from Baseline” value ([1]; 12 hours postdose)?
The value was 9.2 fold and 5.2 fold and 2.1 fold and 10.5 fold and 8.8 fold and 5.8 fold and 0.4 fold and 6.0 fold.

What about the “Plasma CSF-1 Fold Change from Baseline” value ([1]; 24 hours postdose) of the same molecule?
The value was 4.7 fold and 1.4 fold and 1.0 fold and 6.1 fold and 2.9 fold and 3.2 fold and 0.4 fold and 1.8 fold.

And the “Plasma CSF-1 Fold Change from Baseline” value ([1]; 48 hours postdose)?
The value was 2.7 fold (2×) and 1.0 fold and 0.9 fold and 3.3 fold and 2.4 fold and 0.6 fold and 1.6 fold.

And the “Reduction of rate of CSF-1 consumption” value ([2]; 0.001 μM, 1 ng/mL CSF-1)?
Its value is 16%.

And the “Reduction of rate of CSF-1 consumption” value ([2]; 0.01 μM, 1 ng/mL CSF-1)?
Its value is 56%.

What about the “Reduction of rate of CSF-1 consumption” value ([2]; 0.1 μM, 1 ng/mL CSF-1) of the same molecule?
Its value is 64%.

And the “Portion of CSF-1 clearance not inhibited” value ([2]; 1 uM)?
The value was roughly 36%.

And the “Reduction of rate of CSF-1 consumption” value ([2]; 1 μM, 1 ng/mL CSF-1)?
Its value is 64%.

What about the IC50 ([2]; Mus musculus, BMDM, 1 ng/mL CSF-1, read-out: Half-maximal inhibition of CSF-1 consumption) of the same molecule?
Its IC50 is 1 to 10 nM.

And the “Portion of CSF-1 clearance that can be inhibited” value ([2]; based on consumption rates, plateau)?
Its value is roughly 64%.

What about the “Effect on macrophage content of the uterus” value [3] of the same molecule?
The value was “decreased the macrophage content of the uterus”.

What about the “Effect on appearance, behavior, body weight or organ:body weight ratio (liver, spleen, thymus)” value [4] of the same molecule?
Its value is “did not have an observable effect”.

What about the IC50 [5] of the same molecule?
The IC50 was 2.6 nM.

What about the “Mean plasma CSF-1 level” value ([6]; Day 1) of the same molecule?
The value was 112 pg/mL.

And the “Mean plasma CSF-1 level” value ([6]; Day 3)?
The value was 314 pg/mL.

And the “Mean plasma CSF-1 level” value ([6]; Day 5)?
Its value is 526 pg/mL.
